Experiments:
synaptojanin 1 (synj1) = assay: synj1 expression in cultured mouse neurons after AAV2 miRNA over-expression (western blot, qPCR); format: cell-based
Method: Mouse Neuronal and human iPSC culture. Primary cortical neurons were cultured (Zhu L et al., Proc Natl Acad Sci USA 2015, and Zhu L et al., J Biol Chem 2013) before being fixed and stained for confocal microscopy analysis (Zeiss LSM) (Berg I et al., Nat Protoc 2010). In some conditions, bovine serum albumin (BSA) or receptor-associated protein (RAP) was included in the cultured media (N=3/group). Alternatively, cultured neurons were transfected with adeno-associated virus 2 (AAV2)-containing miR-195-5p or miR-374 or scramble controls for 5 days before subjected to analysis. The ApoE4^+/+ and ApoE3^+/+ iPSCs were differentiated into neural progenitor cells (NPCs) by dual SMAD inhibition followed by neural rosette selection and forebrain-specific patterning by 20 ng/ml FGF2 exposure (Bowles K R et al., PloS one 2019, and Tcw J et al., Stem cell reports 2017). These NPCs were purified by MACS for CD271^−/CD133^+ (Bowles K R et al., PloS one 2019) and differentiated to cortical neurons (Bardy C et al., Proc Natl Acad Sci USA 2015, and Paquet D et al., Nature 2016) and a homogeneous population of astrocytes (Tcw J et al., Stem cell reports 2017, and Shaltouki A et al., Stem Cells 2013) before subjected to viral transfection and confocal microscopy analysis. Alternatively, mouse cortical neurons derived from ApoE4^+/+ and ApoE3^+/+ KI mice with synj1^+/+ or synj1^−/− genotypes were co-cultured with ApoE4^+/+ and ApoE3^+/+ iPSC-derived pure astrocytes. In some experiments, cultured neurons were transfected with AAV2-containing miR-195-5p, scramble controls or miR195 inhibitors that specifically prevent miR-195-5p binding to its target mRNA before co-culturing with iPSC-derived astrocytes. Cultured iPSC-derived neurons and astrocytes were then incubated with lysotracker red for various time periods before fixation and double-stained for pTau and a nuclear marker DAPI (blue) for confocal microscopy analysis (Zeiss). N=4-5/condition.
Brain and neuronal sample preparation and biochemical analysis. Snap-frozen mouse hemi-brains or cultured neurons were harvested in lysis buffer (Lane R F et al., The Journal of neuroscience 2010) and processed via step-wise solubilization (Lane R F et al., The Journal of neuroscience 2010, and Kawarabayashi T et al. The Journal of neuroscience 2001) followed by SDS-PAGE to determine levels of synj1, dyn1, holoAPP, and CTFs. Levels of Aβ42, Aβ40, pTau, Tau and ApoE were determined using high-sensitive ELISA kits. Some tissue was used for miRNA and RNA extraction followed by qPCR and RNA-seq analysis. Some animals underwent perfusion followed by brain tissue section for immunohistochemical staining of amyloid plaque, synj1 and pTau.
(§1) Statistical analysis. The sample sizes of each experiment were chosen based on power calculations derived from previous similar studies which allowed the determination of group sizes needed to achieve statistically significant results. […] Levels of miR-195-5p and miR-374 were normalized to U6 and RNU6B (internal controls) while synj1 mRNA normalized to GAPDH and 18s, and then expressed as Log2fold of changes when compared to controls. Levels of synj1, dyn1, pTau, Tau, and holoAPP were normalized to β-actin levels and expressed as a percentage of the control. Absolute Aβ42, Aβ40, pTau, Tau, and ApoE concentrations were quantitatively determined by ELISA and expressed as a percentage of the control. […] Pearson correlation coefficients were calculated to determine the linear relationship between the two variables. […]

dynamin 1 (dyn1) = assay: dynamin 1 protein levels in cultured neurons after AAV2 miRNA over-expression; format: cell-based, mouse; settings: neurons over-expressing miRNA; N=4/group
Method: Mouse Neuronal and human iPSC culture. Primary cortical neurons were cultured (Zhu L et al., Proc Natl Acad Sci USA 2015, and Zhu L et al., J Biol Chem 2013) before being fixed and stained for confocal microscopy analysis (Zeiss LSM) (Berg I et al., Nat Protoc 2010). In some conditions, bovine serum albumin (BSA) or receptor-associated protein (RAP) was included in the cultured media (N=3/group). Alternatively, cultured neurons were transfected with adeno-associated virus 2 (AAV2)-containing miR-195-5p or miR-374 or scramble controls for 5 days before subjected to analysis. […]
Brain and neuronal sample preparation and biochemical analysis. […] Levels of Aβ42, Aβ40, pTau, Tau and ApoE were determined using high-sensitive ELISA kits. […]
as §1, with “analysis.” for “analysis. The sample sizes of each experiment were chosen based on power calculations derived from previous similar studies which allowed the determination of group sizes needed to achieve statistically significant results.”

[1] = ApoE3+/+ neurons with miR-195 over-expression
[2] = ApoE4+/+ neurons with miR-195 over-expression

## UAGCAGCACAGAAAUAUUGGC (chemistry not given here) [miR-195-5p, over-expressed via AAV2-containing miR-195-5p from ABM Inc]
Synaptojanin 1 (synj1); [1]
  synj1 mRNA levels: −1.084±0.035 log2FC
  synj1 protein levels: 70.9±21.2 % of controls
Synaptojanin 1 (synj1); [2]
  synj1 mRNA levels: −7.751±0.043 log2FC
  synj1 protein levels: 48.0±9.84 % of controls
Synaptojanin 1 (synj1); ApoE-/- hippocampal neurons in presence of ApoE4-CM, miRNA over-expression, N=4/group
  synj1 protein levels: 62.87±4.48 % of controls
Dynamin 1 (dyn1)
  dyn protein levels: 97.7 % of controls
